Test results as given in patent US9247759B2, “Identification of human T2R receptors that respond to bitter compounds that elicit the bitter taste in compositions, and the use thereof in assays to identify compounds that inhibit (block) bitter taste in compositions and use thereof” (SENOMYX, INC., priority 2007, dated 2016).
Where two headings read alike, the source gives them in different places.

Experiments:
hT2R7 = hT2R7 (Homo sapiens (Human), UniProt Q9NYW3); assay: hT2R panel inhibition, transient HEK293 G16g44, agonist Chloroquine pH6.5 10 mM; type: cell-based; settings: HEK293, compound at 25 μM; receptor activated to EC80 with the corresponding agonist; read-out: screening result against bitter receptor 7
Sequence of hT2R7 (Q9NYW3 whole entry): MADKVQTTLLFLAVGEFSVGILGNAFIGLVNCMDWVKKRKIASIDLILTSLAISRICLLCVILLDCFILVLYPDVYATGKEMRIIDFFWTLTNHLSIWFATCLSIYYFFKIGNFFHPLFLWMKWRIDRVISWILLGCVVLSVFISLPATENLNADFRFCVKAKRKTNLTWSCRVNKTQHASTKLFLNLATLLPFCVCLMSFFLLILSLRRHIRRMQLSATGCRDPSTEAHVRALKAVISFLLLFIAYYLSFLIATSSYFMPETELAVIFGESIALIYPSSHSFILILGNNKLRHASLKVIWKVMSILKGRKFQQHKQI
Procedure, shortened: (§1)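 Receptor activity was measured in functional assays after single-receptor transient transfection; bitter agonists were used at their EC80 levels. A decrease in that activity when the test compound was added was taken as inhibition.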

hT2R61 = hT2R61 (Homo sapiens (Human), UniProt P59537); assay: hT2R panel inhibition, transient HEK293 G16g44, agonist Aristolochic Acid 25 nM; type: cell-based; settings: HEK293, compound at 25 μM; receptor activated to EC80 with the corresponding agonist; read-out: screening result against bitter receptor 61
Sequence of hT2R61 (P59537 whole entry): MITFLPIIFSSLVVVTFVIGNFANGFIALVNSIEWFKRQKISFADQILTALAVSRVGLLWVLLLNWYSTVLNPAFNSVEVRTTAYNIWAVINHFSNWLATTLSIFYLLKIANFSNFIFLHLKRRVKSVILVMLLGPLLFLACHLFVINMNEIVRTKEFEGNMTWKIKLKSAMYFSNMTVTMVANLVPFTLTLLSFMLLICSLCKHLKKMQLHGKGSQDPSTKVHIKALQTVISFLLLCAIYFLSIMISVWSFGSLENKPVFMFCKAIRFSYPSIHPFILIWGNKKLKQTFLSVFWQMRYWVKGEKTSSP
Procedure, shortened: as §1

hT2R10 = hT2R10 (Homo sapiens (Human), UniProt Q9NYW0); assay: hT2R panel inhibition, transient HEK293 G16g44, agonist Strychnine 50 μM; type: cell-based; settings: HEK293, read-out: screening result against bitter receptor 10, compound at 25 μM; receptor activated to EC80 with the corresponding agonist
Sequence of hT2R10 (Q9NYW0 whole entry): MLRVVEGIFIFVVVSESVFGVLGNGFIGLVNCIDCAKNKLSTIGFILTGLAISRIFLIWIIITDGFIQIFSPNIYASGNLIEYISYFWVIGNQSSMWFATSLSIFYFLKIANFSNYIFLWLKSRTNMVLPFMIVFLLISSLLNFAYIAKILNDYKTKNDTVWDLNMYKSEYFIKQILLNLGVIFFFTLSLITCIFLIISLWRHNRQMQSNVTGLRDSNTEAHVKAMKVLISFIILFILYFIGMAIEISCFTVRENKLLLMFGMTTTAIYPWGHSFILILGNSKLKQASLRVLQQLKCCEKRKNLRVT

hT2R64 = hT2R64 (Homo sapiens (Human), UniProt P59538); assay: hT2R panel inhibition, transient HEK293 G16g44, agonist Aristolochic Acid 1 μM; type: cell-based; settings: HEK293, compound at 25 μM; receptor activated to EC80 with the corresponding agonist; read-out: screening result against bitter receptor 64
Sequence of hT2R64 (P59538 whole entry): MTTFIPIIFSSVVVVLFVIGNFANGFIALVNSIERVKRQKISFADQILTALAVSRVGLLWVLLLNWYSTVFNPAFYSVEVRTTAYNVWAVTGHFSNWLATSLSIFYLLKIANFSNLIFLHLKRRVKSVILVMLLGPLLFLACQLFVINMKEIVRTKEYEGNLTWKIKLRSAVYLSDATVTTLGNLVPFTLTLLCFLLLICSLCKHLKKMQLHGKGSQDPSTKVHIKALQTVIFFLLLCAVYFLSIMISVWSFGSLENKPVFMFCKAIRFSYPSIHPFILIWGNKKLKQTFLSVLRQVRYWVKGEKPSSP
Procedure, shortened: as §1

hT2R14 [1] = biological target: T1, hT2R14 (Homo sapiens (Human), UniProt Q9NYV8); assay: hT2R14 antagonist high-throughput FLIPR assay, stable cell line with G16g44, agonist aristolochic acid; type: cell-based
T1 sequence (Q9NYV8 whole entry): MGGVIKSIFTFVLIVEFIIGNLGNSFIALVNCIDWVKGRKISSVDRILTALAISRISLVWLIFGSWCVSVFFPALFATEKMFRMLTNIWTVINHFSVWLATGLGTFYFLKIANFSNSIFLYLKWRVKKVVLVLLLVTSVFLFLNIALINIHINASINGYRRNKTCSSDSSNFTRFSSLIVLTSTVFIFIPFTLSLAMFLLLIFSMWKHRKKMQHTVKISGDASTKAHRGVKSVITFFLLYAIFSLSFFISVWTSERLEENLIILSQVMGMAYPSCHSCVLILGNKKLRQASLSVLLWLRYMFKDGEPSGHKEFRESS
Procedure, shortened: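 HEK293 cells stably expressing hT2R14 with chimeric G16g44 were stimulated with aristolochic acid (3 μM), giving 70-80% of maximal receptor activity. Test compounds were added together with the agonist, and antagonism was read as fluorescent calcium signal on FLIPR.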

hT2R67 = assay: hT2R panel inhibition, transient HEK293 G16g44, agonist Andrographolide 5 μM; type: cell-based, human; settings: compound at 25 μM; receptor activated to EC80 with the corresponding agonist
Procedure, shortened: as §1

hT2R63 = assay: hT2R panel inhibition, transient HEK293 G16g44, agonist Caffeine 1 mM or Andrographolide 100 μM; type: cell-based, human; settings: compound at 25 μM; receptor activated to EC80 with the corresponding agonist
Procedure, shortened: as §1

hT2R44 = assay: hT2R panel inhibition, transient HEK293 G16g44, agonist Denatonium 0.5 μM; type: cell-based, human; settings: compound at 25 μM; receptor activated to EC80 with the corresponding agonist
Procedure, shortened: as §1

hT2R71 = hT2R71 (Homo sapiens (Human), UniProt P59536); assay: hT2R panel inhibition, transient HEK293 G16g44, agonist Picric Acid 10 μM; type: cell-based; settings: HEK293, compound at 25 μM; receptor activated to EC80 with the corresponding agonist; read-out: screening result against bitter receptor 71
Sequence of hT2R71 (P59536 whole entry): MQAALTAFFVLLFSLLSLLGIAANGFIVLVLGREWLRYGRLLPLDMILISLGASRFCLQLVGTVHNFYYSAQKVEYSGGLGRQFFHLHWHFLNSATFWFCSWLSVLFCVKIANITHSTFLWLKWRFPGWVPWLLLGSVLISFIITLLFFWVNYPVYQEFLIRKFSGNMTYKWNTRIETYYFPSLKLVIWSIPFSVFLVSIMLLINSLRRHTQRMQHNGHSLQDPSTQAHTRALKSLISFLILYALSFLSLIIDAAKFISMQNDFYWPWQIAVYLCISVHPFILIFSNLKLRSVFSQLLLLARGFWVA
Procedure, shortened: as §1

hT2R3 = hT2R3 (Homo sapiens (Human), UniProt Q9NYW6); assay: hT2R panel inhibition, transient HEK293 G16g44, agonist Chloroquine pH6.5 50 μM; type: cell-based; settings: HEK293, compound at 25 μM; receptor activated to EC80 with the corresponding agonist; read-out: screening result against bitter receptor 3
Sequence of hT2R3 (Q9NYW6 whole entry): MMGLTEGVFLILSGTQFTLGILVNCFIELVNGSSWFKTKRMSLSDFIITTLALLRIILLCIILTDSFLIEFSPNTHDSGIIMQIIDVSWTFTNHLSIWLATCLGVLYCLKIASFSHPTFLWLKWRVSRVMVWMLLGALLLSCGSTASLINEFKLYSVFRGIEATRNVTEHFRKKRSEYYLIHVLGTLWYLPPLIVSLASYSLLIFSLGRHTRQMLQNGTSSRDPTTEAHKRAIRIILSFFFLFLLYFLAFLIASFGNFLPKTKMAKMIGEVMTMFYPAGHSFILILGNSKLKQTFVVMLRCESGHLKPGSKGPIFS
Procedure, shortened: as §1

hT2R14 [2] = biological target: T1, hT2R14; assay: hT2R panel inhibition, transient HEK293 G16g44, agonist Aristolochic Acid 2 μM; type: cell-based; settings: HEK293, compound at 25 μM; receptor activated to EC80 with the corresponding agonist; read-out: screening result against bitter receptor 14
Procedure, shortened: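 Each hT2R was transiently transfected into HEK293 cells stably expressing G16g44 and assayed functionally for inhibition of agonist response. Agonists were applied at EC80: andrographolide at 0.5 mM for hT2R8 and aristolochic acid at 2 μM for hT2R14.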

hT2R4 = hT2R4 (Homo sapiens (Human), UniProt Q9NYW5); assay: hT2R panel inhibition, transient HEK293 G16g44, agonist Chloroquine pH6.5 5 mM; type: cell-based; settings: HEK293, compound at 25 μM; receptor activated to EC80 with the corresponding agonist; class symbols; read-out: screening result against bitter receptor 4
Sequence of hT2R4 (Q9NYW5 whole entry): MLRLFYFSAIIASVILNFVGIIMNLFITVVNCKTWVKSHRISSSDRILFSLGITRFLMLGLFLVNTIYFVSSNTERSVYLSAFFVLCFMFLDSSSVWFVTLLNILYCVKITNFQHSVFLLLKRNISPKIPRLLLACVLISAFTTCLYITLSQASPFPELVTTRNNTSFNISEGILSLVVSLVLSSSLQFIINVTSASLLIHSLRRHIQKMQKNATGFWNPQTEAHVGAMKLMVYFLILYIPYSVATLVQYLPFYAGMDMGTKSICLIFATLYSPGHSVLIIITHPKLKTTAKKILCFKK
Description: Specifically, in order to evaluate the inhibitory selectivity of the Compound C compound, this compound was tested against 22 human T2Rs which were deorphaned by Senomyx. These receptors and the bitter ligands that activate these human T2Rs are reported in earlier patent applications which are incorporated by reference herein. These 22 human T2Rs are hT2R1, 3, 4, 5, 7, 8, 9, 10, 13, 14, 16, 44, 51, 54, 55, 61, 63, 64, 65, 67, 71 and 75. The amino acid and nucleic acid sequences of all of these T2Rs may be found in these earlier patent applications. These human T2Rs were each individually transiently transfected into HEK293 cells that stably express the promiscuous G protein G16g44 and functional assays were effected using these receptors as disclosed in these same patent applications. […] The ligands were used at EC80 concentration levels. The list of bitter ligands utilized and the tested ligand concentrations are contained in Table 5 of this example.
Relating to the foregoing, FIG. 5 contains experimental results wherein Compound C was tested with different agonist compounds. The inhibition activity is represented by the reduction of receptor activity in the presence of Compound C. […] These 13 hT2Rs are hT2R3, 7, 10, 14, 16, 44, 51, 55, 61, 63, 64, 65, and 71.

hT2R55 = assay: hT2R panel inhibition, transient HEK293 G16g44, agonist Cinchonine 150 μM; type: cell-based, human; settings: compound at 25 μM; receptor activated to EC80 with the corresponding agonist
Procedure, shortened: as §1

hT2R75 = hT2R75 (Homo sapiens (Human), UniProt P59540); assay: hT2R panel inhibition, transient HEK293 G16g44, agonist Strychnine 1 μM; type: cell-based; settings: HEK293, read-out: screening result against bitter receptor 75, compound at 25 μM; receptor activated to EC80 with the corresponding agonist
Sequence of hT2R75 (P59540 whole entry): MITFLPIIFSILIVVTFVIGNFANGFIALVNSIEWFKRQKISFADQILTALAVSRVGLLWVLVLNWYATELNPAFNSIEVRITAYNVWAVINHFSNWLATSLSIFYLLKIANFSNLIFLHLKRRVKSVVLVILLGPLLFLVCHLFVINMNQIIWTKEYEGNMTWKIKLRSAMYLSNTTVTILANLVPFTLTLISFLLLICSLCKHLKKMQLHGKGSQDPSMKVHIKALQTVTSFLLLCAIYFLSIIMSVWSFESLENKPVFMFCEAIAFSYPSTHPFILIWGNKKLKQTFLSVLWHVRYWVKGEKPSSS

hT2R16 = hT2R16 (Homo sapiens (Human), UniProt Q9NYV7); assay: hT2R panel inhibition, transient HEK293 G16g44, agonist Salicin 1 mM; type: cell-based; settings: HEK293, compound at 25 μM; receptor activated to EC80 with the corresponding agonist; read-out: screening result against bitter receptor 16
Sequence of hT2R16 (Q9NYV7 whole entry): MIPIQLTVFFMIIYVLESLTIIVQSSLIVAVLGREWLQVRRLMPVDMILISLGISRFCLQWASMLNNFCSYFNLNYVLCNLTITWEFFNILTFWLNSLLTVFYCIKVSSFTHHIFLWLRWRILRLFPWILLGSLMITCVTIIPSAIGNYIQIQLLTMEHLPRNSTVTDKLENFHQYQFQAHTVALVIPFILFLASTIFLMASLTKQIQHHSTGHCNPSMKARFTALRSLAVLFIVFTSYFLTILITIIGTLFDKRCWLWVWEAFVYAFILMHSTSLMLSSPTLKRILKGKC
Procedure, shortened: as §1

hT2R54 = assay: hT2R panel inhibition, transient HEK293 G16g44, agonist Ranitidine 5 mM; type: cell-based, human; settings: compound at 25 μM; receptor activated to EC80 with the corresponding agonist
Procedure, shortened: as §1

hT2R65 = assay: hT2R panel inhibition, transient HEK293 G16g44, agonist Oleuropein 1 mM; type: cell-based, human; settings: compound at 25 μM; receptor activated to EC80 with the corresponding agonist
Procedure, shortened: as §1

[3] = read-out: IC50 on hT2R14 bitter receptor

SMILES | inhibition at 25 µM (hT2R7) | inhibition at 25 µM (hT2R61) | inhibition at 25 µM (hT2R10) | inhibition at 25 µM (hT2R64) | IC50 (hT2R14 [1]; [3]) | screening result against bitter receptor 67 (hT2R67) | screening result against bitter receptor 63 (hT2R63) | screening result against bitter receptor 44 (hT2R44) | inhibition at 25 µM (hT2R71) | inhibition at 25 µM (hT2R3) | inhibition at 25 µM (hT2R14 [2]) | inhibition at 25 µM (hT2R4) | screening result against bitter receptor 55 (hT2R55) | inhibition at 25 µM (hT2R75) | inhibition at 25 µM (hT2R16) | screening result against bitter receptor 54 (hT2R54) | screening result against bitter receptor 65 (hT2R65) | IC50 (hT2R14 [1]; Table C, read-out: hT2R14 IC50)
COc1ccccc1CN(Cc1ccco1)S(=O)(=O)c1ccc(C(=O)O)cc1 [Example 5-7, 4-(N-(furan-2-ylmethyl)-N-(2-methoxybenzyl)sulfamoyl)benzoic acid] | 20 to 40% | > 80% | 20 to 40% | > 80% | 12 µM | + (20% to 40% inhibition = +) | ++++ (80% or greater inhibition = ++++) | ++ (40% to 60% inhibition = ++) | 40 to 60% | 20 to 40% | 40 to 60% | 20 to 40% | ++++ (80% or greater inhibition = ++++) | 20 to 40% | – | – | – | –
CCCN(Cc1ccc(OC)cc1)S(=O)(=O)c1ccc(C(=O)O)cc1 [Example 5-17, 4-(N-(4-methoxybenzyl)-N-propylsulfamoyl)benzoic acid] | 20 to 40% | > 80% | – | – | 3.75 µM | – | – | +++ (60% to 80% inhibition = +++) | 40 to 60% | 20 to 40% | > 80% | 20 to 40% | ++++ (80% or greater inhibition = ++++) | 20 to 40% | 20 to 40% | ++ (40% to 60% inhibition = ++) | ++ (40% to 60% inhibition = ++) | –
O=C(O)C1CCC(CN(Cc2ccc(F)cc2)S(=O)(=O)c2cccs2)CC1 (stereo not drawn) [Example 5-51, 4-((N-(4-fluorobenzyl)thiophene-2-sulfonamido)methyl)cyclohexanecarboxylic acid] | 20 to 40% | > 80% | 20 to 40% | 40 to 60% | – | – | +++ (60% to 80% inhibition = +++) | ++ (40% to 60% inhibition = ++) | 40 to 60% | 40 to 60% | > 80% | 20 to 40% | +++ (60% to 80% inhibition = +++) | 20 to 40% | 20 to 40% | – | + (20% to 40% inhibition = +) | 0.342 µM
